Molecules are shown by their SMILES. Values after ≈ are worked out from the molar mass of the structure shown.

The subject of test [1] is Staphylococcus aureus 101. The test can be described thus: MIC against Staphylococcus aureus 101. Format: cell-based. To be noted: Table 2; Staphylococcus aureus 101, MRSA- and trimethoprim-resistant; clinical isolate; read-out: MIC Sa101.
For test [2], the system named is Streptococcus pneumoniae 1/1. The test can be described thus: MIC against Streptococcus pneumoniae 1/1. The settings on record: Table 2; Streptococcus pneumoniae 1/1, trimethoprim- and penicillin-resistant, serotype 6; clinical isolate; read-out: MIC Sp1/1. Format: cell-based.
Test [3] deals with purified DHFR of strain 157/4696 of Staphylococcus aureus (Staphylococcus aureus, UniProt P13955). The test can be described thus: biochemical.
Sequence of purified DHFR of strain 157/4696 of Staphylococcus aureus (P13955 whole entry): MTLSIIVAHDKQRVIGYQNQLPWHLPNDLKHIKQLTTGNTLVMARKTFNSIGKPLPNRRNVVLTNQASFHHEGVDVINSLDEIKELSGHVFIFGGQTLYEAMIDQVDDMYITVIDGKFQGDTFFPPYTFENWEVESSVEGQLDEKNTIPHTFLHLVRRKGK
The target of test [4] is T1, purified DHFR of strain Sp1/1 of Streptococcus pneumoniae (Streptococcus pneumoniae serotype 4, UniProt Q54801).
T1 sequence (Q54801 1-168 I100L): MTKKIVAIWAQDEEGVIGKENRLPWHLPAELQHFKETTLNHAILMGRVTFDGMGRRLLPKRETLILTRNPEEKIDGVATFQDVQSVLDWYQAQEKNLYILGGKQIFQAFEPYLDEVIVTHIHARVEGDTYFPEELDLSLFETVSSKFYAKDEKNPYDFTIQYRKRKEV
Format: biochemical. The settings on record: Table 2; IC50 against purified DHFR of strain Sp1/1.

For the compound `CCOc1cc(Cc2cnc(N)nc2N)cc(OC(C)C)c1-c1ccc(O)cc1` [Example 08-m, 4′-(2,4-diamino-pyrimidin-5-ylmethyl)-6′-ethoxy-2′-isopropoxy-biphenyl-4-ol], the results for the MIC in test [1] and in test [2] were 8 µg/mL (≈ 20.3 µM) and 4 µg/mL (≈ 10.1 µM), respectively. Moreover, the IC50 was 860 nM in test [3] and 65 nM in test [4].
Taken in the same sequence, the figures for `CCOc1cc(Cc2cnc(N)nc2N)cc(OCC(C)C)c1-c1ccc(O)cc1` [Example 08-n, 4′-(2,4-Diamino-pyrimidin-5-ylmethyl)-6′-ethoxy-2′-isobutoxy-biphenyl-4-ol] were 4 µg/mL (≈ 9.79 µM), 2 µg/mL (≈ 4.9 µM), 1200 nM and 15 nM.
Taken in the same sequence, the figures for `CCOc1cc(Cc2cnc(N)nc2N)cc(OCC2(C)CC2)c1-c1ccc(O)cc1` [Example 08-o, 4′-(2,4-Diamino-pyrimidin-5-ylmethyl)-6′-ethoxy-2′-[(1-methyl-cyclopropyl)-methoxy]-biphenyl-4-ol] were 4 µg/mL (≈ 9.51 µM), 2 µg/mL (≈ 4.76 µM), 1400 nM and 51 nM.
Regarding `CCOc1cc(Cc2cnc(N)nc2N)cc(OCC(C)(C)CO)c1-c1ccc(O)cc1` [Example 08-p], the results for the MIC in test [1] and in test [2] were 8 µg/mL (≈ 18.2 µM) and 4 µg/mL (≈ 9.12 µM), respectively. Moreover, the IC50 in test [3] came to 800 nM; in test [4], 20 nM.
As to `CCOc1cc(Cc2cnc(N)nc2N)cc(OCCc2scnc2C)c1-c1ccc(O)cc1` [Example 08-q, 4′-(2,4-Diamino-pyrimidin-5-ylmethyl)-6′-ethoxy-2′-[2-(4-methyl-thiazol-5-yl)-ethoxy]-biphenyl-4-ol], the MIC in test [1] and in test [2] was 8 µg/mL (≈ 16.8 µM) in each case. In addition, the half-inhibitory concentration (IC50) in test [3] came out at 1400 nM; in test [4] it was 28 nM.
With `CCOc1cc(Cc2cnc(N)nc2N)cc(OC2CCC(OC)C2)c1-c1ccc(O)cc1` (stereo not shown) [Example 08-r, 5-[6-Ethoxy-2-(3-methoxy-cyclopentyloxy)-4′-hydroxy-biphenyl-4-ylmethyl]-pyrimidine-2,4-diamine], the MIC in test [1] and in test [2] was 8 µg/mL (≈ 17.8 µM) in each case. The IC50 was 1200 nM in test [3] and 37 nM in test [4].
Take `CCOc1cc(Cc2cnc(N)nc2N)cc(OCC(F)(F)F)c1-c1ccc(O)cc1` [Example 08-s]: the MIC came to 4 µg/mL (≈ 9.21 µM) in test [1] and 2 µg/mL (≈ 4.6 µM) in test [2]. Moreover, the IC50 is 3700 nM in test [3] and 31 nM in test [4].
Taken in the same sequence, the figures for `CCOc1cc(Cc2cnc(N)nc2N)cc(OC2CCC(CC#N)C2)c1-c1ccc(O)cc1` (stereo not shown) [Example 08-w, {3-[4-(2,4-Diamino-pyhmidin-5-ylmethyl)-6-ethoxy-4′-hydroxy-biphenyl-2-yloxy]-cyclopentyl}-acetonitrile] were 8 µg/mL (≈ 17.4 µM), 4 µg/mL (≈ 8.7 µM), 920 nM and 21 nM.
Taken in the same sequence, the figures for `CCOc1cc(Cc2cnc(N)nc2N)cc(OC2CCC(C#N)C2)c1-c1ccc(O)cc1` (stereo not shown) [Example 08-x, 3-[4-(2,4-Diamino-pyximidin-5-ylmethyl)-6-ethoxy-4′-hydroxy-biphenyl-2-yloxy]-cyclopentanecarbonitrile] were 8 µg/mL (≈ 18 µM), 4 µg/mL (≈ 8.98 µM), 1400 nM and 25 nM.
`CCOc1cc(Cc2cnc(N)nc2N)cc(OCC(C)(C)COC)c1-c1ccc(OC)cc1` [Example 09-a, 5-[6-Ethoxy-4′-methoxy-2-(3-methoxy-2,2-dimethyl-propoxy)-biphenyl-4-ylmethyl]-pyrimidine-2,4-diamine]: the MIC came to 8 µg/mL (≈ 17.1 µM) in test [1] and 4 µg/mL (≈ 8.57 µM) in test [2]. For the same compound, the IC50 in test [3] amounted to 3100 nM; in test [4], 90 nM.
Consider `CCOc1cc(Cc2cnc(N)nc2N)cc(OCC2(CCC#N)CC2)c1-c1ccc(OC)cc1` [Example 09-c, 3-{1-[4-(2,4-Diamino-pyrimidin-5-ylmethyl)-6-ethoxy-4′-methoxy-biphenyl-2-yloxymethyl]-cyclopropyl}-propionitrile], for which the MIC in test [1] is 4 µg/mL (≈ 8.45 µM); in test [2], 1 µg/mL (≈ 2.11 µM). Further, the concentration for half-maximal inhibition (IC50) came to 900 nM in test [3] and 16 nM in test [4].
Taken in the same sequence, the figures for `CCOc1cc(Cc2cnc(N)nc2N)cc(OCC2CC2)c1-c1ccc(OC)cc1` [Example 09-d, 5-(2-Cyclopropylmethoxy-6-ethoxy-4′-methoxy-biphenyl-4-ylmethyl)-pyrimidine-2.4-diamine] were 4 µg/mL (≈ 9.51 µM), 2 µg/mL (≈ 4.76 µM), 1500 nM and 30 nM.
Consider `CCCOc1cc(Cc2cnc(N)nc2N)cc(OCC)c1-c1ccc(OC)cc1` [Example 09-e, 5-(6-Ethoxy-4′-methoxy-2-propoxy-biphenyl-4-ylmethyl)-pyrimidine-2,4-diamine], for which the MIC in test [1] and in test [2] was 4 µg/mL (≈ 9.79 µM) throughout. Besides, the IC50 in test [3] came to 1000 nM; in test [4] it was 45 nM.
Regarding `CCOc1cc(Cc2cnc(N)nc2N)cc(OC(C)C)c1-c1ccc(OC)cc1` [Example 09-f, 5-(2-Ethoxy-6-isopropopy-4′-methoxy-biphenyl-4-ylmethyl)-pyrimidine-2,4-diamine], the MIC in test [1] and in test [2] was 8 µg/mL (≈ 19.6 µM) in each case. Also, the IC50 was determined as 1900 nM in test [3] and 140 nM in test [4].
`CCOc1cc(Cc2cnc(N)nc2N)cc(OCC(C)C)c1-c1ccc(OC)cc1` [Example 09-g, 5-(2-Ethoxy-6-isobutox-4′-methoxy-biphenyl-4-ylmethyl)-pyrimidine-2,4-diamine]: the MIC in test [1] and in test [2] was 4 µg/mL (≈ 9.47 µM) throughout. Besides, the half-maximal inhibitory concentration (IC50) in test [3] came out at 1600 nM; in test [4], 50 nM.
For `CCOc1cc(Cc2cnc(N)nc2N)cc(OCC2CCC2)c1-c1ccc2c(c1)OCO2` [Example 10-a, 5-(4-Benzof[1.3]dioxol-5-yl-3-cyclobutylmethoxy-5-ethoxy-benzyl)-pyrimidine-2,4-diamine], the MIC in test [1] and in test [2] was 8 µg/mL (≈ 17.8 µM) throughout. Besides, the half-maximal inhibitory concentration (IC50) was 1400 nM in test [3] and 34 nM in test [4].
Turning to `CCOc1cc(Cc2cnc(N)nc2N)cc(OCC2CC2)c1-c1ccc2c(c1)OCO2` [Example 10-b, 5-(4-Benzo[1.3]dioxol-5-yl-3-cyclopropylmethoxy-5-ethoxy-benzyl)-pyrimidine-2,4-diamine], the MIC in test [1] was determined as 8 µg/mL (≈ 18.4 µM); in test [2], 2 µg/mL (≈ 4.6 µM). Further, the IC50 in test [3] was 2400 nM; in test [4], 40 nM.
On to `CCOc1cc(Cc2cnc(N)nc2N)cc(OCC(C)C)c1-c1ccc2c(c1)OCO2` [Example 10-c, 5-(4-Benzo[1,3]dioxol-5-yl-3-ethoxy-5-isobutoxy-benzyl)-pyrimidine-2,4-diamine], for which the MIC in test [1] amounted to 8 µg/mL (≈ 18.3 µM); in test [2], 4 µg/mL (≈ 9.16 µM). For the same compound, the IC50 amounted to 5000 nM in test [3] and 11 nM in test [4].
Take `CCOc1cc(Cc2cnc(N)nc2N)cc(OC2CCCC2)c1-c1ccc2c(c1)OCO2` [Example 10-d, 5-(4-Benzo[1,3]dioxol-5-yl-3-cyclopentyloxy-5-ethoxy-benzyl)-pyrimidine-2,4-diamine]: the MIC turned out to be 4 µg/mL (≈ 8.92 µM) in test [1] and 8 µg/mL (≈ 17.8 µM) in test [2]. In addition, the values for the IC50 in test [3] and in test [4] were 1700 nM and 42 nM, respectively.
Taken in the same sequence, the figures for `CCOc1cc(Cc2cnc(N)nc2N)cc(OC2CCC2)c1-c1ccc2c(c1)OCO2` [Example 10-e, 5-(4-Benzo[1.31]dioxol-5-yl-3-cyclobutoxy-5-ethoxy-benzyl)-pyrmidine-2,4-diamine] were 8 µg/mL (≈ 18.4 µM), 8 µg/mL (≈ 18.4 µM), 1800 nM and 50 nM.
Taken in the same sequence, the figures for `C=C(C)COc1cc(Cc2cnc(N)nc2N)cc(OCC)c1-c1ccc2c(c1)OCO2` [Example 10-f, 5-[4-Benzo[1.3]dioxol-5-yl-3-ethoxy-5-(2-methyl-allyloxy)-benzyl]-pyrimidine-2,4-diamine] were 8 µg/mL (≈ 18.4 µM), 8 µg/mL (≈ 18.4 µM), 1800 nM and 85 nM.
In the case of `CCOc1cc(Cc2cnc(N)nc2N)cc(OCC2CC2)c1-c1ccc(N)c(C)c1` [Example 11-a], the MIC came to 8 µg/mL (≈ 19.1 µM) in test [1] and 1 µg/mL (≈ 2.38 µM) in test [2]. Further, the IC50 in test [3] came out at 1800 nM; in test [4] it was 18 nM.
Taken in the same sequence, the figures for `CCOc1cc(Cc2cnc(N)nc2N)cc(OCC2CC2)c1-c1ccc(OC)c(N)c1` [Example 12-, 5-(3′-Amino-2-cyclopropylmethoxy-6-ethoxy-4′-methoxy-biphenyl-4-ylmethl)-pyrimidine-2,4-diamine] were 8 µg/mL (≈ 18.4 µM), 2 µg/mL (≈ 4.59 µM), 1800 nM and 14 nM.
For `CCOc1cc(Cc2cnc(N)nc2N)cc(OCC2CC2)c1-c1ccc(N)cc1` [Example 13-, 5-(4′-Amino-2-cyclopropylmethoxy-6-ethoxy-biphenyl-4-ylmethyl)-pyrimidine-2,4-diamine], the MIC in test [1] amounted to 8 µg/mL (≈ 19.7 µM); in test [2], 2 µg/mL (≈ 4.93 µM). Besides, the IC50 in test [3] stood at 1400 nM; in test [4] it was 16 nM.
On to `CCOc1cc(Cc2cnc(N)nc2N)cc(OS(C)(=O)=O)c1-c1cccc(N)c1` [Example 14-a, Methanesulphonic acid 3′-amino-4-(2,4-diamino-gyrimidin-5-ylmethyl)-6-ethoxy-biphenyl-2-yl ester], for which the MIC in test [1] amounted to 8 µg/mL (≈ 18.6 µM); in test [2] it was 4 µg/mL (≈ 9.31 µM). Also, the IC50 turned out to be 350 nM in test [3] and 23 nM in test [4].

By IC50 is commonly meant the midpoint of a concentration-inhibition curve.
